Test results from patent US20210047693A1, “METHODS OF TREATING EXTRACHROMOSOMAL DNA EXPRESSING CANCERS” (THE REGENTS OF THE UNIVERSITY OF CALIFORNIA, priority 2017, published 2021).

Experiments:
Assay type in all cases: cell-based
PC3 cells = assay: 2D colony formation assay with crystal violet staining; conditions: PC3 cells compared with immortalized HEK293 cells
Experimental: FIGS. 12A-12C. […] FIG. 12A) Acute cell toxicity following 4 days treatment with 10 μM of indicated PARPi. Cell death measured by FACS analysis of Sytox Red staining in 2 normal cell types (astrocytes and HEK293), PC3 ecDNA-containing cells, and the paired GBM39 cells. FIG. 12B) 2D colony formation assay and crystal violet staining in immortalized HEK293 cells and PC3 cells after treatment with Olaparib or Rucaparib. FIG. 12C) Colony number quantification by Colony Area software plug-in for ImageJ from data in (FIG. 12B).

[1] = tested on: isogenic paired COLO320 cells; assay: 3D soft agar assay; conditions: COLO320 isogenic pair (colon cancer cell line)
Excerpt: (§1) FIGS. 13A-13B. […] FIG. 13A) 3D soft agar assay in isogenic paired GBM39 cells treated with Olaparib or Rucaparib. Quantification of colonies as measured by ColonyArea software (bottom). FIG. 13B) 3D soft agar assay in isogenic paired COLO320 cells (a colon cancer cell line) treated with Olaparib or Rucaparib. Quantification of colonies as measured by ColonyArea software (bottom).

[2] = tested on: isogenic paired GBM39 cells; assay: 3D soft agar assay; conditions: GBM39 isogenic pair
Excerpt: as §1

GBM cells [3] = assay: Glucose levels in cells
GBM cells [4] = assay: Loss of EGFR-containing ecDNA / EGFR oncogene DNA (number of ecDNAs per metaphase)
ecDNA = assay: Replication stress on ecDNA versus chromosomal DNA; conditions: vehicle versus erlotinib; ecDNA vs chromosomal DNA
GBM39 cells = assay: Exosomal export of oncogenes amplified on ecDNA (FISH probe and PCR analysis of purified exosomes); conditions: exosomes purified from treated GBM39 cells

CNCc1ccc(-c2[nH]c3cc(F)cc4c3c2CCNC4=O)cc1 [Rucaparib, rucaparib]
2D colony formation (colony number) (PC3 cells): sensitive to PARP inhibition | 3D soft agar colonies [1]: sensitive to PARP inhibition | 3D soft agar colonies [2]: sensitive to PARP inhibition

C#Cc1cccc(Nc2ncnc3cc(OCCOC)c(OCCOC)cc23)c1 [erlotinib]
glucose levels in GBM cells (GBM cells [3]): lowers glucose levels in GBM cells | loss of ecDNA containing amplified EGFRvIII (number of ecDNAs per metaphase) (GBM cells [4]): causes the loss of ecDNA containing amplified EGFRvIII | replication stress on ecDNA (frequency of pRPA(533) positive metaphase) (ecDNA): specifically causes replication stress on ecDNA, but not on chromosomal DNA | cellular level of oncogenes amplified on ecDNA, via exosomal export (GBM39 cells): reduction of cellular level of oncogenes amplified on ecDNA

O=C(c1cc(Cc2n[nH]c(=O)c3ccccc23)ccc1F)N1CCN(C(=O)C2CC2)CC1 [Olaparib, olaparib]
2D colony formation (colony number) (PC3 cells): sensitive to PARP inhibition | 3D soft agar colonies [1]: sensitive to PARP inhibition | 3D soft agar colonies [2]: sensitive to PARP inhibition
